Measurements reported in patent publication US10413583B2, “Synthetic substrates for enzymes that catalyze reactions of modified cysteines and related methods” (The University of Chicago, priority 2016, dated 2019).

Columns and labels:
HEPG2 cells [1] = experiment: Epifluorescent imaging of DPP-5 and diacetyl rhodol in HepG2 cells (PalmB, ML348, ML349, palmitate); format: cell-based, human; conditions: 1 mM palmitate for 6 hours post-starvation
Experimental: 250,000 HEK293T cells/well, 120,000 HeLa cells/well, or 100,000 HepG2 cells/well were plated in 700 μL DMEM glutamax (10% FBS+1% P/S) into 4-well chambered imaging dish (D35C4-20-1.5-N, Cellvis, Mountain View, Calif., United States of America), which were precoated with 5 μg Poly-D-lysine (30-70 KDa, Alfa Aesar, Haverhill, Mass., United States of America) for 2 h. After 20-24 h, the media was replaced by 1 μM Hoechst 33342 and DMSO/5 μM PalmB in 400 μL DMEM glutamax. After 30 min of incubation at 37° C., the cells were washed with 400 μL of Live Cell Imaging Solution and replaced by 1 μM DPP-5 with DMSO or 5 μM of PalmB in Live Cell Imaging Solution. After 20 min of incubation at 37° C., images were obtained on an inverted epifluorescence microscope (Olympus IX83; Olympus Corporation, Tokyo, Japan) attached with EMCCD camera (Photometrics EVOLVE™ Delta, Photometrics, Tucson, Ariz., United States of America) with 40× oil objective (N/A 1.3) for DPP-5 (excitation filter 500/20, dichroic chroma 89007, emission filter 535/30), Hoechst 33342 (excitation filter 402/15, emission filter 455/50, dichroic chroma 89013), and brightfield. Analyses were performed in ImageJ. For data analysis, the average fluorescence intensity per image in each experimental condition was obtained by selecting ROI in Brightfield and applying that to the corresponding DPP-5 image, average background fluorescence intensity was subtracted and data was normalized to the average fluorescence intensity of the DMSO control. Each experiment was repeated in at least two biological replicates with identical results.
16,000 HepG2 cells/well were plated in 100 μL DMEM glutamax (10% fetal bovine serum (FBS)) into 4 wells of a 96-well chambered imaging dish (P96-1-N, Cellvis, Mountain View Calif., United States of America), which were precoated with 0.7 μg Poly-D-lysine (30-70 KDa, Alfa Aesar, Haverhill, Mass., United States of America) for 2 hrs. After 24 h, cells were washed with Live Cell Imaging Solution and replaced by 1 μM Hoechst 33342 and DMSO/10 μM ML348/10 μM ML349/10 μM of both ML348 and ML349 in 100 μL DMEM glutamax. After 30 min of incubation at 37° C., the cells were washed with 100 μL of Live Cell Imaging Solution and replaced by 1 μM DPP-5 in Live Cell Imaging Solution. After 20 min of incubation at 37° C., images were obtained on an inverted epifluorescence microscope (Leica DMi8; Leica Microsystems, Wetzlar, Germany) equipped with a camera (Hamamatsu Orca-Flash 4.0; Hamamatsu, Hamamatsu City, Japan) with 63× oil objective (N/A 1.4) and light source (Sutter Lamda XL, 300 W Xenon; Sutter Instrument, Novato, Calif., United States of America) for DPP-5 (YFP filter cube 1525306), Hoechst 33342 (DAPI filter cube), and brightfield using Leica LASX software (Leica Microsystems, Wetzlar, Germany). Analyses were performed in ImageJ. Each experiment was repeated in three biological replicates and 8-12 images were considered for plotting bar graphs for quantification. For detailed data analysis, the average fluorescence intensity per image in each experimental condition was obtained by selecting ROI in Brightfield and applying that to the corresponding DPP-5 image, average background fluorescence intensity was subtracted and data was normalized to the average fluorescence intensity of the control experiment. […] 250,000 HEK293T cells/well were plated in 700 μL DMEM glutamax (10% FBS+1% P/S) into three wells of a 4-well chambered imaging dish (D35C4-20-1.5-N, Cellvis, Mountain View, Calif., United States of America), which were precoated with 5 μg Poly-Dlysine (30-70 KDa, Alfa Aesar, Haverhill, Mass., United States of America) for 2 h. After 18 h, the media was replaced by 1 μM Hoechst 33342 in 400 μL DMEM glutamax. […] After 20 min of incubation at 37° C., images were obtained and analyzed as described above. […]

HEPG2 cells [2] = experiment: Fluorescence imaging of RDP-1 with HEPG2 cells (PalmB, palmitate); format: cell-based, human; conditions: palmitate pretreatment for 6 hours
Experimental: HEPG2 were plated with […] of DMEM (Gibco, Gaithersburg, Md., United States of America; High Glucose, Glutamax, 10% FBS) a four well chambered imaging dish (D35C4-20-1.5-N, Cellvis, Mountain View, Calif., United States of America) which were precoated with 4 μg Poly-D-lysine (30-70 KDa, Alfa Aesar, Haverhill, Mass., United States of America) for 2 h at room temperature or overnight at 4° C. and grown to ca. 80% confluence prior to imaging. 30 min before the addition of the RDP, the cell culture media was removed and cells were washed with 500 μL of serum-free DMEM (Gibco, Gaithersburg, Md., United States of America; High Glucose, Glutamax, no FBS). The media was then replaced with 500 μL of serum-free DMEM containing 100 nM Mitotracker Deep Red (Thermo Fisher Scientific, Waltham, Mass., United States of America) to assist in focusing and processing) and either 0.1% DMSO carrier as a control or Palm B in DMSO and incubated for 30 min at 37° C. and 5% CO2. The media was removed, the cells were washed with 500 μL of Live Cell Imaging Solution (Thermo Fisher Scientific, Waltham, Mass., United States of America), and 500 μL of 1 μM RDP-1 along with the Palm B or DMSO as control in Live Cell Imaging Solution was added to each well. […]

With `CCCCCCCCCCCCCCCC(=O)[O-].[Na+]` [palmitate, sodium palmitate] the “increase in intensity of S-depalmitoylase signal as measured by DPP-5” value (HEPG2 cells [1]) was ~50% and the “effect on APT activity as measured by RDP-1” value (HEPG2 cells [2]) was “a decrease in APT activity”.
